Several values for one entry are separate records, joined by “and”; a condition that tells them apart may be missing. Equal values may be shown once.
Assay: xn = mol fraction of the nth substance listed
Settings: Fluid (supercritical or subcritical phases); for mass density: 293.15 K, Vibrating tube method, x1 = 0.97; for speed of sound: 298.13 K, Frequency=5 MHz, Pulse-echo method

O=C=O [carbon dioxide] + CO
Settings	mass density [kg/m3]
14700 kPa	904.75
14725 kPa	904.95
14750 kPa	905.15
14775 kPa	905.36
14800 kPa	905.48
14825 kPa	905.68
14850 kPa	905.88
14875 kPa	906.06
14900 kPa	906.27
14925 kPa	906.44
14950 kPa	906.59
14975 kPa	906.77
15000 kPa	906.96
15025 kPa	907.15
15050 kPa	907.32
15075 kPa	907.46
15100 kPa	907.6
15125 kPa	907.83
15150 kPa	907.99
15175 kPa	908.18
15200 kPa	908.32
15225 kPa	908.49
15250 kPa	908.66
15275 kPa	908.85
15300 kPa	909.03
15325 kPa	909.22
15350 kPa	909.37
15375 kPa	909.52
15400 kPa	909.68
15425 kPa	909.89
15450 kPa	910.03
15475 kPa	910.14
15500 kPa	910.23
15525 kPa	910.31
15550 kPa	910.48
15575 kPa	910.7
15600 kPa	910.88
15625 kPa	911.01
15650 kPa	911.21
15675 kPa	911.37
15700 kPa	911.59
15725 kPa	911.74
15750 kPa	911.86
15775 kPa	912.03
15800 kPa	912.19
15825 kPa	912.36
15850 kPa	912.52
15875 kPa	912.75
15900 kPa	912.9
15925 kPa	913.04
15950 kPa	913.17
15975 kPa	913.37
16000 kPa	913.55
16025 kPa	913.66
16050 kPa	913.83
16075 kPa	913.99
16100 kPa	914.15
16125 kPa	914.31
16150 kPa	914.45
16175 kPa	914.56
16200 kPa	914.73
16225 kPa	914.89
16250 kPa	915.05
16275 kPa	915.22
16300 kPa	915.38
16325 kPa	915.54
16350 kPa	915.71
16375 kPa	915.87
16400 kPa	916.03
16425 kPa	916.2
16450 kPa	916.37
16475 kPa	916.52
16500 kPa	916.75
16525 kPa	916.93
16550 kPa	917.01
16575 kPa	917.25
16600 kPa	917.37
16625 kPa	917.58
16650 kPa	917.7
16675 kPa	917.9
16700 kPa	918.08
16725 kPa	918.24
16750 kPa	918.41
16775 kPa	918.57
16800 kPa	918.73
16825 kPa	918.9
16850 kPa	919.06
16875 kPa	919.22
16900 kPa	919.43
16925 kPa	919.55
16950 kPa	919.71
16975 kPa	919.95
17000 kPa	920.08
17025 kPa	920.29
17050 kPa	920.44
17075 kPa	920.59
17100 kPa	920.73
17125 kPa	920.92
17150 kPa	921.1
17175 kPa	921.27
17200 kPa	921.4
17225 kPa	921.53
17250 kPa	921.7
17275 kPa	921.85
17300 kPa	922.01
17325 kPa	922.18
17350 kPa	922.33
17375 kPa	922.5
17400 kPa	922.71
17425 kPa	922.85
17450 kPa	922.99
17475 kPa	923.17
17500 kPa	923.34
17525 kPa	923.48
17550 kPa	923.64
17575 kPa	923.77
17600 kPa	923.94
17625 kPa	924.11
17650 kPa	924.26
17675 kPa	924.4
17700 kPa	924.55
17725 kPa	924.7
17750 kPa	924.87
17775 kPa	925.03
17800 kPa	925.19
17825 kPa	925.35
17850 kPa	925.49
17875 kPa	925.61
17900 kPa	925.82
17925 kPa	925.93
17950 kPa	926.13
17975 kPa	926.25
18000 kPa	926.42
18025 kPa	926.56
18050 kPa	926.67
18075 kPa	926.86
18100 kPa	927.05
18125 kPa	927.16
18150 kPa	927.35
18175 kPa	927.46
18200 kPa	927.66
18225 kPa	927.75
18250 kPa	927.94
18275 kPa	928.06
18300 kPa	928.22
18325 kPa	928.38
18350 kPa	928.5
18375 kPa	928.68
18400 kPa	928.85
18425 kPa	928.95
18450 kPa	929.11
18475 kPa	929.27
18500 kPa	929.45
18525 kPa	929.53
18550 kPa	929.71
18575 kPa	929.88
18600 kPa	929.97
18625 kPa	930.13
18650 kPa	930.29
18675 kPa	930.46
18700 kPa	930.61
18725 kPa	930.69
18750 kPa	930.86
18775 kPa	931.01
18800 kPa	931.17
18825 kPa	931.25
18850 kPa	931.43
18875 kPa	931.59
18900 kPa	931.74
18925 kPa	931.9
18950 kPa	931.99
18975 kPa	932.14
19000 kPa	932.3
19025 kPa	932.45
19050 kPa	932.6
19075 kPa	932.74
19100 kPa	932.87
19125 kPa	933.01
19150 kPa	933.14
19175 kPa	933.29
19200 kPa	933.42
19225 kPa	933.56
19250 kPa	933.7
19275 kPa	933.83
19300 kPa	933.97
19325 kPa	934.1
19350 kPa	934.24
19375 kPa	934.38
19400 kPa	934.51
19425 kPa	934.64
19450 kPa	934.79
19475 kPa	934.91
19500 kPa	935.12
19525 kPa	935.24
19550 kPa	935.36
19575 kPa	935.49
19600 kPa	935.62
19625 kPa	935.75
19650 kPa	935.88
19675 kPa	936
19700 kPa	936.18
19725 kPa	936.26
19750 kPa	936.44
19775 kPa	936.57
19800 kPa	936.69
19825 kPa	936.81
19850 kPa	936.93
19875 kPa	937.05
19900 kPa	937.17
19925 kPa	937.36
19950 kPa	937.48
19975 kPa	937.6
20000 kPa	937.71

Settings	speed of sound
10080 kPa, x1 = 0.7534	529.7 m/s
14970 kPa, x1 = 0.925	538.3 m/s
14980 kPa, x1 = 0.7534	600.9 m/s
14980 kPa, x1 = 0.925	537.1 m/s
14990 kPa, x1 = 0.925	536.5 m/s and 539.1 m/s
15060 kPa, x1 = 0.8502	554 m/s
19950 kPa, x1 = 0.925	600.2 m/s
19960 kPa, x1 = 0.925	602.2 m/s
20000 kPa, x1 = 0.8502	613.8 m/s
20000 kPa, x1 = 0.925	599.6 m/s and 601.7 m/s
20030 kPa, x1 = 0.7534	657.7 m/s
24940 kPa, x1 = 0.8502	663.5 m/s
24970 kPa, x1 = 0.925	651.7 m/s
24990 kPa, x1 = 0.925	651.3 m/s
25000 kPa, x1 = 0.925	652.9 m/s and 653 m/s
29950 kPa, x1 = 0.925	696.6 m/s
29980 kPa, x1 = 0.925	696.1 m/s
29990 kPa, x1 = 0.925	696.8 m/s
30000 kPa, x1 = 0.8502	707.4 m/s
30010 kPa, x1 = 0.925	695.5 m/s
30030 kPa, x1 = 0.7534	746.7 m/s
34980 kPa, x1 = 0.7534	783.5 m/s
34990 kPa, x1 = 0.925	735.2 m/s
35000 kPa, x1 = 0.925	736.1 m/s
35020 kPa, x1 = 0.925	734.8 m/s
35060 kPa, x1 = 0.8502	746.3 m/s
39980 kPa, x1 = 0.925	771.2 m/s
39990 kPa, x1 = 0.925	770.5 m/s and 770.1 m/s
40000 kPa, x1 = 0.925	771.3 m/s
40030 kPa, x1 = 0.8502	780.8 m/s
